From PubChem BioAssay (NCI)
“And” between values parts separate entries of the source, which are not always exact repeats. Identical values can stand only once.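 Dose response: 5 concentrations. Exposure: 48 h. Format: 96-well plates. Endpoint: linear interpolation; highest concentration if not reached. Abbreviation: GI50, concentration required for 50% inhibition of growth. TGI: total growth inhibition.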

Key:
Test in all cases: NCI tumour cell line growth inhibition, 48 h
[1] = test system: SF-295 CNS
[2] = test system: HOP-62 NSCLC
[3] = test system: HCT-116 colon
[4] = test system: NCI-H23 lung
[5] = test system: U251 CNS
[6] = test system: SN12C renal
[7] = test system: CCRF-CEM leukemia
[8] = test system: A549 NSCLC
[9] = test system: TK-10 renal
[10] = test system: SNB-78 CNS
[11] = test system: A498 renal
[12] = test system: DLD-1 colon
[13] = test system: OVCAR-5 ovarian
[14] = test system: SK-MEL-5 melanoma
[15] = test system: XF 498 CNS
[16] = test system: M19-MEL melanoma
[17] = test system: SK-OV-3 ovarian
[18] = test system: RXF 393 renal
[19] = test system: NCI-H460 lung
[20] = test system: LOX IMVI melanoma
[21] = test system: SNB-19 CNS
[22] = test system: RPMI-8226 leukemia
[23] = test system: K-562 leukemia
[24] = test system: SW-620 colon
[25] = test system: P388 leukemia
[26] = test system: HCC-2998 colon
[27] = test system: NCI-H522 lung
[28] = test system: EKVX NSCLC
[29] = test system: HOP-18 NSCLC
[30] = test system: OVCAR-8 ovarian
[31] = test system: NCI/ADR-RES ovarian
[32] = test system: MOLT-4 leukemia
[33] = test system: HOP-92 NSCLC
[34] = test system: CAKI-1 renal
[35] = test system: SF-268 CNS
[36] = test system: COLO 205 colon
[37] = test system: SN12K1 renal
[38] = test system: UO-31 renal
[39] = test system: HT29 colon
[40] = test system: SK-MEL-28 melanoma
[41] = test system: DMS 114 small cell lung
[42] = test system: OVCAR-4 ovarian
[43] = test system: NCI-H226 lung
[44] = test system: DMS 273 small cell lung
[45] = test system: SNB-75 CNS
[46] = test system: UACC-257 melanoma
[47] = test system: HCT-15 colon
[48] = test system: OVCAR-3 ovarian
[49] = test system: IGROV1 ovarian
[50] = test system: SF-539 CNS
[51] = test system: KM20L2 colon
[52] = test system: MALME-3M melanoma
[53] = test system: P388/ADR leukemia
[54] = test system: UACC-62 melanoma
[55] = test system: MCF7 breast
[56] = test system: HL-60(TB) leukemia
[57] = test system: KM12 colon
[58] = test system: SK-MEL-2 melanoma

Question: Which TGI [1] does the source give for C=C1C(C)C2C(Cc3ccccc3)NC(=O)C23OC(=O)/C=C\CC(=O)CCC(C)C/C=C/C3C1O (stereo not drawn) here?
Answer: 13.9 µM

Question: What about the TGI [2] of the same compound?
Answer: 7.33 µM

Question: What about the TGI [3] of the same compound?
Answer: 7.35 µM

Question: And the TGI [4]?
Answer: 12.5 µM

Question: What about the TGI [5] of the same compound?
Answer: 10.7 µM

Question: And the TGI [6]?
Answer: 5.93 µM

Question: And the GI50 [7]?
Answer: 0.135 µM and 0.216 µM

Question: What about the TGI [8] of the same compound?
Answer: 20.9 µM

Question: And the TGI [9]?
Answer: 0.722 µM

Question: What about the TGI [10] of the same compound?
Answer: 2.08 µM

Question: What about the TGI [11] of the same compound?
Answer: 5.32 µM

Question: What about the TGI [12] of the same compound?
Answer: 3.36 µM

Question: What about the TGI [13] of the same compound?
Answer: 25.2 µM

Question: What about the TGI [14] of the same compound?
Answer: 16.3 µM

Question: What about the TGI [15] of the same compound?
Answer: 1.07 µM

Question: What about the TGI [16] of the same compound?
Answer: 12.5 µM

Question: What about the TGI [17] of the same compound?
Answer: 19 µM

Question: What about the TGI [18] of the same compound?
Answer: 1.42 µM

Question: What about the TGI [19] of the same compound?
Answer: 21.7 µM

Question: And the TGI [20]?
Answer: 3.64 µM

Question: And the TGI [21]?
Answer: 12.9 µM

Question: And the GI50 [22]?
Answer: 0.932 µM

Question: And the TGI [22]?
Answer: 5.21 µM

Question: What about the TGI [23] of the same compound?
Answer: 5.79 µM

Question: And the TGI [24]?
Answer: 3.82 µM

Question: And the TGI [25]?
Answer: 0.385 µM

Question: And the TGI [26]?
Answer: 18.5 µM

Question: And the GI50 [27]?
Answer: 0.366 µM

Question: What about the TGI [27] of the same compound?
Answer: 0.931 µM and 2.52 µM

Question: What about the TGI [28] of the same compound?
Answer: 10.1 µM

Question: And the TGI [29]?
Answer: 1.94 µM

Question: What about the TGI [30] of the same compound?
Answer: 16.7 µM

Question: What about the TGI [31] of the same compound?
Answer: 33.4 µM

Question: And the GI50 [32]?
Answer: 1.01 µM

Question: What about the TGI [32] of the same compound?
Answer: 3.83 µM

Question: What about the GI50 [33] of the same compound?
Answer: 0.345 µM

Question: What about the TGI [33] of the same compound?
Answer: 2.1 µM

Question: And the GI50 [34]?
Answer: 0.474 µM

Question: And the TGI [34]?
Answer: 2.24 µM

Question: What about the TGI [35] of the same compound?
Answer: 7.48 µM

Question: And the TGI [36]?
Answer: 5.09 µM

Question: And the TGI [37]?
Answer: 3.43 µM

Question: What about the GI50 [38] of the same compound?
Answer: 0.913 µM

Question: What about the TGI [38] of the same compound?
Answer: 2.72 µM

Question: And the TGI [39]?
Answer: 11.1 µM

Question: And the TGI [40]?
Answer: 3.92 µM

Question: What about the TGI [41] of the same compound?
Answer: 6.61 µM

Question: And the TGI [42]?
Answer: 7.39 µM

Question: What about the GI50 [43] of the same compound?
Answer: 0.635 µM

Question: What about the TGI [43] of the same compound?
Answer: 10.3 µM

Question: And the TGI [44]?
Answer: 14.1 µM

Question: What about the GI50 [45] of the same compound?
Answer: 0.594 µM

Question: What about the TGI [45] of the same compound?
Answer: 2.64 µM

Question: What about the TGI [46] of the same compound?
Answer: 3.89 µM

Question: What about the TGI [47] of the same compound?
Answer: 4.41 µM

Question: What about the GI50 [48] of the same compound?
Answer: 0.384 µM

Question: And the TGI [48]?
Answer: 7.9 µM

Question: And the TGI [49]?
Answer: 10.6 µM

Question: And the TGI [50]?
Answer: 4.39 µM

Question: What about the TGI [51] of the same compound?
Answer: 15.8 µM

Question: And the TGI [52]?
Answer: 5.18 µM

Question: And the TGI [53]?
Answer: 2.1 µM

Question: And the TGI [54]?
Answer: 11.2 µM

Question: What about the GI50 [55] of the same compound?
Answer: 0.695 µM and 1.39 µM

Question: What about the TGI [55] of the same compound?
Answer: 5.1 µM

Question: What about the GI50 [56] of the same compound?
Answer: 0.158 µM and 0.755 µM

Question: And the TGI [57]?
Answer: 12.7 µM

Question: And the TGI [58]?
Answer: 8.35 µM
